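Exposure lasted 48 hours, with cells grown in 96-well plates and compounds tested at five concentrations. The concentration for 50% growth inhibition is given as GI50. TGI: concentration producing complete growth inhibition.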
Key:
Test in all cases: growth of human tumour cells (NCI), 48 h
RPMI-8226 leukemia = system: RPMI-8226 leukemia
SR leukemia = system: SR leukemia
SNB-19 CNS = system: SNB-19 CNS
HL-60(TB) leukemia = system: HL-60(TB) leukemia
CAKI-1 renal = system: CAKI-1 renal
SF-295 CNS = system: SF-295 CNS
SK-MEL-5 melanoma = system: SK-MEL-5 melanoma
NCI-H460 lung = system: NCI-H460 lung
HT29 colon = system: HT29 colon
BT-549 breast = system: BT-549 breast

SMILES | GI50 (RPMI-8226 leukemia) [µM] | TGI (RPMI-8226 leukemia) [µM] | GI50 (SR leukemia) [µM] | TGI (SR leukemia) [µM] | GI50 (SNB-19 CNS) [µM] | TGI (SNB-19 CNS) [µM] | GI50 (HL-60(TB) leukemia) [µM] | TGI (HL-60(TB) leukemia) [µM] | GI50 (CAKI-1 renal) [µM] | TGI (CAKI-1 renal) [µM] | GI50 (SF-295 CNS) [µM] | TGI (SF-295 CNS) [µM] | GI50 (SK-MEL-5 melanoma) [µM] | TGI (SK-MEL-5 melanoma) [µM] | GI50 (NCI-H460 lung) [µM] | TGI (NCI-H460 lung) [µM] | GI50 (HT29 colon) [µM] | TGI (HT29 colon) [µM] | GI50 (BT-549 breast) [µM] | TGI (BT-549 breast) [µM]
COc1ccc(-c2cc(-c3ccc(Cl)cc3)nc(NCCCCNc3ccnc4cc(Cl)ccc34)n2)cc1 | 2.14 | 5.66 | 0.708 | > 100 | 11 | 25.7 | 5.08 | 22.1 | 10.6 | 22.6 | 8.02 | 24.2 | 1.7 | 3.08 | 2.04 | 4.35 | 1.68 | 3.57 | 13.4 | 28.6
c1ccc(Oc2ccc(Nc3ncc(-c4ccccc4)o3)cc2)cc1 | > 25 | > 25 | > 25 | > 25 | > 25 | > 25 | > 25 | > 25 | > 25 | > 25 | > 25 | > 25 | > 25 | > 25 | > 25 | > 25 | > 25 | > 25 | > 25 | > 25
COc1ccccc1[As]=[As]c1ccccc1OC (stereo not given) | 0.0278 | 0.0832 | 0.0277 | 0.0707 | 0.065 | 0.193 | 0.0492 | 0.262 | 0.066 | 0.202 | 0.104 | 0.264 | 0.0468 | 0.163 | 0.096 | 0.334 | 0.0405 | 0.174 | 0.0582 | 0.182
CCC(=O)N1C/C(=C/c2ccc(Br)cc2)C(=O)/C(=C/c2ccc(Br)cc2)C1 | < 0.0497 | – | – | 1.02 | 0.995 | 2.9 | 1.86 | 5.63 | 1.21 | – | 1.6 | 4.3 | 0.996 | 2.45 | 0.827 | 3.07 | 0.102 | 0.433 | 0.653 | 1.39
Cn1cc(C2=C(c3cn(CCCN)c4ccccc34)C(=O)NC2=O)c2ccccc21 | 5.91 | 12.5 | 2.53 | 13.8 | 7.89 | 24.9 | 5.04 | 11.6 | 4.94 | > 15.9 | 7.38 | > 25 | 3.77 | 7.26 | 5.25 | 11.1 | 4.74 | 18.4 | 5.07 | 11.5
Cc1nc2sc3c(N)ncnc3c2c(C)c1C | > 25 | > 25 | > 25 | > 25 | > 25 | > 25 | > 25 | > 25 | > 25 | > 25 | > 25 | > 25 | > 25 | > 25 | > 25 | > 25 | > 25 | > 25 | > 25 | > 25
O=C1Cc2cc(CCn3cncn3)c(Cl)cc2N1 | > 100 | > 100 | 11.8 | > 100 | 70.7 | > 100 | > 100 | > 100 | 8.33 | > 100 | 37.1 | > 100 | 10.1 | > 100 | 68.6 | > 100 | > 100 | > 100 | 8.72 | > 100
Oc1[nH]c2ccccc2c1/C=c1/ccc2c(c1)N=C(c1ccc(C(F)(F)F)cc1)N=2 | 1.34 | 4 | 1.7 | 4.54 | 5.38 | 21.1 | 2.26 | 5.27 | 3.11 | 13.6 | 2.7 | 12.2 | 8.72 | 20.9 | 2.13 | 6.12 | 1.61 | 11.3 | 2.04 | 9.25
COc1ccc2c(O)c(/C=C3\N=Nc4ncccc43)oc2c1C[C@@H]1CCNC[C@H]1F | 0.266 | 0.984 | – | 0.193 | 0.541 | 7.59 | 0.314 | 1.14 | 0.848 | 6.47 | 0.723 | 4.03 | 0.869 | 8.35 | 0.617 | 2.05 | 0.307 | 2.09 | – | 2.53
COc1cc([N+](=O)[O-])c(S(=O)(=O)O)cc1-n1nc(C(=O)Nc2ccccc2)n[n+]1-c1cc(S(=O)(=O)[O-])c([N+](=O)[O-])cc1OC | – | > 100 | – | > 100 | – | > 100 | – | > 100 | – | > 100 | – | > 100 | – | > 100 | – | > 100 | – | > 100 | – | > 100
CCOc1ccc(C(C[N+](=O)[O-])Sc2ccccc2N)cc1 (stereo not given) | 2.23 | 5.32 | 2.3 | 5.17 | 9.22 | 21.2 | 2.27 | 6.59 | 12.9 | 25.6 | 4.39 | 17.3 | 6.34 | 19.4 | 10.2 | 27 | 2.07 | 4.19 | 2.6 | 9.9
CNC(=O)c1c(F)cccc1Nc1nc(Nc2cc3c(cc2OC)CCN3C(=O)CN(C)C)nc2[nH]ccc12 | 4.94 | 17.4 | 0.0203 | > 100 | 7.04 | > 62.8 | 0.364 | 18.2 | 16.1 | 45.7 | 19 | 38.2 | 5.67 | 23.1 | 6.2 | 30.1 | 0.0643 | 1.66 | 19.8 | 48.2

From PubChem BioAssay (NCI)
